Measured values from US4486445A, “Justicidin insecticidal and antiviral compounds” (E. I. Du Pont de Nemours and Company, priority 1983, dated 1984).
Converted amounts (≈) assume the structure as drawn. Read-outs that look alike come from different tables or passages of the source.

Columns and labels:
[1] = tested on: Aedes egypti larvae; experiment: insecticidal activity against larvae of A. egypti in water; format: in vivo; settings: larvae of A. egypti in H2O; for LC50: Aedes, read-out: EC50 (effective kill concentration for 50% of the experimental larvae)
Procedure: The insecticidal activity of the crude acetone/water extracts of Justicia extensa, prepared according to the isolation procedure described previously, was tested against laboratory cultures of the mosquito species Aedes egypti (Linnaeus) and southern army worm (SAW) Spodoptera eridania (Cramer). Extracts of leaves, branches and roots were employed in each test.
In tests against larvae of A. egypti, 10 mg of the crude plant extract was thoroughly dispersed in 20 ml of water in a test tube to which 10 first instar larvae were added.

[2] = tested on: HeLa cells; format: cell-based
[3] = tested on: Human Rhino Virus (HRV-2); experiment: inhibition of HRV-2 in HeLa cells; format: cell-based, Human rhinovirus HRV-2; settings: Rhinovirus A; for inhibition at 0.016 µg/mL: HRV2, 0.016 μg/ml; for inhibition at 0.08 µg/mL: HRV2, 0.08 μg/ml; for inhibition at 0.4 µg/mL: HRV2, 0.4 μg/ml; for inhibition at 2 µg/mL: HRV2, 2 μg/ml; for inhibition at 10 µg/mL: HRV2, 10 μg/ml
[4] = tested on: Herpes Type 1-strain VR3; experiment: plaque formation inhibition, Herpes Type 1 in HeLa cells; format: cell-based; settings: for antiviral activity against Herpes Type 1: HeLa cells
[5] = tested on: Herpes Type 2-Alabama strain; experiment: plaque formation inhibition, Herpes Type 2 in HeLa cells; format: cell-based; settings: for antiviral activity against Herpes Type 2: HeLa cells
[6] = tested on: fish; settings: in vivo, cited from earlier work
[7] = tested on: mosquito larvae of the species Culex pipiens pallens; settings: mixtures with pyrethrin or allethrin; cited from earlier work
[8] = tested on: A/JAX inbred mice; experiment: in vivo oral toxicity in A/JAX inbred mice; settings: orally, 200 and 100 mg/kg
Procedure: In vivo toxicity studies of natural and synthetic Justicidin P produced mixed results. […] However, natural and synthetic Justicidin P were toxic to A/JAX inbred mice when administered orally at dosages of 200 and 100 mg/kg.

[9] = tested on: IMR-90 cells; settings: substantially similar test conditions

Row | SMILES | LC50 [1] | inhibition at 0.016 µg/mL ([3]; 200 PFU) | inhibition at 0.08 µg/mL ([3]; 200 PFU) | inhibition at 0.4 µg/mL ([3]; 200 PFU) | inhibition at 0.016 µg/mL ([3]; 400 PFU) | inhibition at 0.08 µg/mL ([3]; 400 PFU) | inhibition at 0.4 µg/mL ([3]; 400 PFU) | inhibition at 2 µg/mL ([3]; 400 PFU) | inhibition at 10 µg/mL ([3]; 400 PFU) | also measured
1 | COc1cc2c(O)c3c(c(-c4ccc5c(c4)OCO5)c2cc1OC)C(=O)OC3 [Diphyllin, 9-(1,3-Benzodioxol-5-yl)-6,7-dimethoxy-4-hydroxynaphtho[2,3-c]furan-1(3H)-one, reference compound] | – | – | – | – | – | – | – | – | – | EC50 (effective kill concentration for 50% of the experimental larvae) [1]: not active
2 | COc1cc2c(OC)c3c(c(-c4ccc5c(c4)OCO5)c2cc1OC)C(=O)OC3OC(C)C (stereo not drawn) [Compound 19] | 0.7 µg/mL (≈ 1.55 µM) | 100% | ≥ 100% | 107% | – | – | – | – | – | cytotoxicity ([2]; 1, 4, 16 and 64 μg/ml): demonstrated cytotoxic properties; inhibition at 2 µg/mL ([3]; 200 PFU): 14%
3 | CCCOC1OC(=O)c2c1c(OC)c1cc(OC)c(OC)cc1c2-c1ccc2c(c1)OCO2 (racemic) [Compound 17, (±)-9-(1,3-Benzodioxol-5-yl)-3-propoxy-4,6,7-trimethoxynaphtho[2,3-c]furan-1(3H)-one] | 0.8 µg/mL (≈ 1.77 µM) | ≥ 100% | ≥ 100% | ≥ 100% | – | – | – | – | – | inhibition at 0.1 µg/mL ([4]; 0.1 μg/ml, HeLa, read-out: plaque formation inhibition against Type 1 (average)): 71%; antiviral activity against Herpes Type 1 [4]: demonstrated antiviral activity; inhibition at 0.1 µg/mL ([5]; 0.1 μg/ml, HeLa, read-out: plaque formation inhibition against Type 2 (average)): 91%; antiviral activity against Herpes Type 2 [5]: demonstrated antiviral activity; cytotoxicity ([2]; 1 μg/ml): cytotoxic; inhibition at 2 µg/mL ([3]; 200 PFU): ≥ 74%
4 | COc1cc2c(OC)c3c(c(-c4ccc5c(c4)OCO5)c2cc1OC)C(=O)OC3OC(C)=O (racemic) [Compound 15] | 1 µg/mL (≈ 2.21 µM) | – | – | – | 0% | 0% | 0% | 0% | 72% | –
5 | CCCCCCCSC1OC(=O)c2c1c(OC)c1cc(OC)c(OC)cc1c2-c1ccc2c(c1)OCO2 (stereo not drawn) [Compound 18] | – | 80% | ≥ 100% | ≥ 100% | – | – | – | – | – | inhibition at 1 µg/mL ([4]; 1 μg/ml, HeLa, read-out: inhibition against Type 1): 17%; inhibition at 4 µg/mL ([4]; 4 μg/ml, HeLa, read-out: inhibition against Type 1): 81%; antiviral activity against Herpes Type 1 [4]: demonstrated antiviral activity; inhibition at 1 µg/mL ([5]; 1 μg/ml, HeLa, read-out: inhibition against Type 2): 16%; inhibition at 4 µg/mL ([5]; 4 μg/ml, HeLa, read-out: inhibition against Type 2): 77%; antiviral activity against Herpes Type 2 [5]: demonstrated antiviral activity; cytotoxicity ([2]; 64 and 16 μg/ml): cytotoxic
6 | COc1cc2c(OC)c3c(c(-c4ccc5c(c4)OCO5)c2cc1OC)C(=O)OC3F (racemic) [Compound 14, (±)-9-(1,3-Benzodioxol-5-yl)-3-fluoro-4,6,7-trimethoxynaphtho[2,3-c]furan-1(3H)-one] | 0.7 µg/mL (≈ 1.7 µM) | – | – | – | 0% | 0% | 0% | 21% | 79% | –
7 | COc1cc2c(OC)c3c(c(-c4ccc5c(c4)OCO5)c2cc1OC)C(=O)OC3 [Justicidin A, 9-(1,3-Benzodioxol-5-yl)-4,6,7-trimethoxynaphtho[2,3-c]furan-1(3H)-one] | 10 µg/mL (≈ 25.4 µM) | – | – | – | – | – | – | – | – | piscicidal activity [6]: extraordinary piscicidal activity; piscicidal activity ([6]; listed as justicidins A): active piscicidal components; synergistic behavior [7]: synergistic behavior was observed
8 | COc1cc2cc3c(c(-c4ccc5c(c4)OCO5)c2cc1OC)C(=O)OC3 [Justicidin B] | – | – | – | – | – | – | – | – | – | piscicidal activity [6]: extraordinary piscicidal activity; piscicidal activity ([6]; listed as B): active piscicidal components; synergistic behavior [7]: synergistic behavior was observed
9 | COc1cc2c(OC)c3c(c(-c4ccc5c(c4)OCO5)c2cc1OC)C(=O)OC3OC (racemic) [Justicidin P (synthetic), (±)-9-(1,3-Benzodioxol-5-yl)-3,4,6,7-tetramethoxynaphtho[2,3-c]furan-1(3H)-one] | 0.01 µg/mL (≈ 0.0236 µM) | – | – | – | 0% | 0% | 0% | 73% | 43% | in vivo toxicity [8]: toxic
10 | Nc1nc2c(ncn2COCCO)c(=O)[nH]1 [acyclovir, 9-(2-hydroxy-ethoxymethyl)guanine, reference compound] | – | – | – | – | 0% | 0% | 0% | 0% | 0% | inhibition at 8 µg/mL ([4]; HeLa, 8 μg/ml, similar test conditions): 90%; inhibition of Type 2 plaque formation ([5]; range between 0.5 μg/ml and 8 μg/ml, similar test conditions): 90-99%; sensitivity of IMR-90 cells [9]: sensitive
11 | COc1cc2c(OC)c3c(c(-c4ccc5c(c4)OCO5)c2cc1OC)C(=O)OC3O (racemic) [Compound 16, (±)-9-(1,3-Benzodioxol-5-yl)-3-hydroxy-4,6,7-trimethoxynaphtho[2,3-c]furan-1(3H)-one] | 10 µg/mL (≈ 24.4 µM) | – | – | – | 0% | 0% | 0% | 0% | 98% | –
12 | CCCCCCCCCCCCOC1OC(=O)c2c1c(OC)c1cc(OC)c(OC)cc1c2-c1ccc2c(c1)OCO2 (stereo not drawn) [Compound 20] | – | 0% | 0% | 10% | – | – | – | – | – | inhibition at 2 µg/mL ([3]; 200 PFU): 74%; inhibition at 10 µg/mL ([3]; 200 PFU): 83%
